IC50 data for 2 compounds are collected here from PubChem BioAssay AID548 (The Scripps Research Institute Molecular Screening Center, 2006).

This assay concerns the target cAMP-dependent protein kinase catalytic subunit alpha (Homo sapiens) (UniProt P17612). The experiment in a line: PubChem AID 548. The conditions noted are these: Purified PKA, Kemptide, Kinase-Glo ATP luminescence.

The structures appear in SMILES notation. The source made the active and inactive calls. No rule for the calls is given here. Where only a bound is given, the exact number is not on record here.

Take `Nc1c(S(=O)(=O)c2cccc(Cl)c2)c2nc3ccccc3nc2n1/N=C/c1ccc(O)c(O)c1`: the IC50 was > 59.6 µM (inactive).

Turning to `O/N=C/c1c[nH]c2ccccc12`, the IC50 is 34.4 µM.

One may read the IC50 as the concentration at which inhibition is half-maximal.
